Measurements published in ChEMBL document CHEMBL1201862, “PubChem BioAssay data set” (2004).
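Dose response: 5 concentrations. Exposure: 48 h. Format: 96-well plates. Endpoint: linear interpolation; highest concentration if not reached. At the GI50, growth is halved.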 Activity calls are given as the source filed them. Cut-off read from the data, not from the text of the source: active = GI50 up to about 1.1 µM and inactive = higher.

Columns and labels:
Test in all cases: NCI-60 cell line screen, 48 h
786-0 = test system: 786-0
CAKI-1 = test system: CAKI-1
CCRF-CEM = test system: CCRF-CEM
EKVX = test system: EKVX
HCT-15 = test system: HCT-15
HOP-92 = test system: HOP-92
HT-29 = test system: HT-29
MDA-MB-231 = test system: MDA-MB-231
MDA-N = test system: MDA-N
NCI/ADR-RES = test system: NCI/ADR-RES
PC-3 = test system: PC-3
SF-295 = test system: SF-295
SK-MEL-28 = test system: SK-MEL-28
T47D = test system: T47D
UACC-62 = test system: UACC-62
DMS-114 = test system: DMS-114
HOP-18 = test system: HOP-18
KM-20L2 = test system: KM-20L2
SNB-78 = test system: SNB-78

| Compound | GI50 (786-0) | GI50 (CAKI-1) | GI50 (CCRF-CEM) | GI50 (EKVX) | GI50 (HCT-15) [µM] | GI50 (HOP-92) | GI50 (HT-29) | GI50 (MDA-MB-231) | GI50 (MDA-N) | GI50 (NCI/ADR-RES) | GI50 (PC-3) | GI50 (SF-295) | GI50 (SK-MEL-28) | GI50 (T47D) | GI50 (UACC-62) | GI50 (DMS-114) | GI50 (HOP-18) | GI50 (KM-20L2) | GI50 (SNB-78) |
| --- | --- | --- | --- | --- | --- | --- | --- | --- | --- | --- | --- | --- | --- | --- | --- | --- | --- | --- | --- |
| CCCCN(C(=O)c1ccccc1)C1CCC(=O)c2[nH]c3ccccc3c21 (configuration not stated) | 42.1 µM (inactive) | 20.8 µM (inactive) | 29.6 µM (inactive) | 51.6 µM (inactive) | 24.5 | 22.1 µM (inactive) | 20.5 µM (inactive) | 23.7 µM (inactive) | 50 µM (inactive) | 30.8 µM (inactive) | 20.7 µM (inactive) | 30.5 µM (inactive) | 90.2 µM (inactive) | 26.9 µM (inactive) | 25 µM (inactive) | – | – | – | – |
| CCC1OC2C(CC=C(C)C)=C3OC(C)(O)C(C)(CC)C(OC(C)=O)C3=C3OC(=O)C=C1C32 (configuration not stated) | 37.7 µM (inactive) | 28.2 µM (inactive) | 36 µM (inactive) | 33.3 µM (inactive) | 37 | 59.4 µM (inactive) | 22.8 µM (inactive) | 19.8 µM (inactive) | – | 29.6 µM (inactive) | 38.8 µM (inactive) | 17.8 µM (inactive) | 24.7 µM (inactive) | 37.8 µM (inactive) | 18.8 µM (inactive) | – | – | – | – |
| CCOP(=O)(CN=C(c1ccccc1)c1ccccc1)OCC | – | > 100 µM (inactive) | > 100 µM (inactive) | – | > 100 | > 100 µM (inactive) | > 100 µM (inactive) | > 100 µM (inactive) | > 100 µM (inactive) | > 100 µM (inactive) | > 100 µM (inactive) | > 100 µM (inactive) | > 100 µM (inactive) | 86.7 µM (inactive) | – | – | – | – | – |
| Nc1ccccc1Sc1ccc(Cl)cc1 | – | – | 17.9 µM (inactive) | 30.1 µM (inactive) | 28.1 | 20 µM (inactive) | 19.1 µM (inactive) | – | – | – | – | 27.9 µM (inactive) | 28.9 µM (inactive) | – | 30.3 µM (inactive) | 21.2 µM (inactive) | 43.2 µM (inactive) | 20.9 µM (inactive) | 17 µM (inactive) |
| O=C/C(=C1/C=Cc2cc([N+](=O)[O-])ccc2S1)c1ccccc1 | > 100 µM (inactive) | > 100 µM (inactive) | > 100 µM (inactive) | > 100 µM (inactive) | > 100 | > 100 µM (inactive) | > 100 µM (inactive) | > 100 µM (inactive) | > 100 µM (inactive) | > 100 µM (inactive) | > 100 µM (inactive) | > 100 µM (inactive) | > 100 µM (inactive) | > 100 µM (inactive) | – | – | – | – | – |
| O=C1C=C(Sc2ccccc2)c2nccc3c2c1nc1ccccc13 | 16.9 µM (inactive) | 44.2 µM (inactive) | 3.13 µM (inactive) | 20.7 µM (inactive) | 12.2 | 17.9 µM (inactive) | 11.2 µM (inactive) | 20 µM (inactive) | 16.9 µM (inactive) | 21.8 µM (inactive) | 13.3 µM (inactive) | 29.4 µM (inactive) | 19.3 µM (inactive) | – | 15.5 µM (inactive) | – | – | – | – |
| N#Cc1c(NC(=S)NC(=O)c2ccccc2)nc2c(c1-c1ccccc1)CCCC2 | – | > 100 µM (inactive) | > 100 µM (inactive) | – | > 100 | – | > 100 µM (inactive) | 93.8 µM (inactive) | > 100 µM (inactive) | 51.6 µM (inactive) | > 100 µM (inactive) | 34.9 µM (inactive) | 78.7 µM (inactive) | 17.7 µM (inactive) | > 100 µM (inactive) | – | – | – | – |
| C=CCC12CC(=O)C=C1CCC1(C2)OCCO1 (configuration not stated) | > 100 µM (inactive) | > 100 µM (inactive) | > 100 µM (inactive) | – | > 100 | – | – | – | – | – | – | – | > 100 µM (inactive) | – | > 100 µM (inactive) | – | > 100 µM (inactive) | > 100 µM (inactive) | > 100 µM (inactive) |
| CSCCC(NC(=O)OCc1ccccc1)P(=O)(O)c1ccccc1 (configuration not stated) | – | > 100 µM (inactive) | > 100 µM (inactive) | – | > 100 | > 100 µM (inactive) | > 100 µM (inactive) | > 100 µM (inactive) | > 100 µM (inactive) | > 100 µM (inactive) | > 100 µM (inactive) | > 100 µM (inactive) | > 100 µM (inactive) | > 100 µM (inactive) | – | – | – | – | – |
| Nc1ccc(N(S(=O)(=O)c2ccccc2)S(=O)(=O)c2ccccc2)c(Cl)c1 | 81.1 µM (inactive) | 47.3 µM (inactive) | – | 64.3 µM (inactive) | 55.7 | 70.3 µM (inactive) | 37.8 µM (inactive) | 98.2 µM (inactive) | 28.9 µM (inactive) | 40.2 µM (inactive) | 35.6 µM (inactive) | 32.2 µM (inactive) | 68.9 µM (inactive) | 48.1 µM (inactive) | 24.8 µM (inactive) | – | – | – | – |
| CC(C)(C)/N=c1/n(C(C)(C)C)oc(=O)n1C(C)(C)C | > 100 µM (inactive) | > 100 µM (inactive) | > 100 µM (inactive) | > 100 µM (inactive) | > 100 | > 100 µM (inactive) | > 100 µM (inactive) | > 100 µM (inactive) | > 100 µM (inactive) | > 100 µM (inactive) | > 100 µM (inactive) | > 100 µM (inactive) | > 100 µM (inactive) | – | > 100 µM (inactive) | – | – | – | – |
